{"source": "patent US20120308682A1", "about": "“RUMINANT FEED, PRODUCTS, AND METHODS COMPRISING BENEFICIAL FATTY ACIDS” (MONSANTO TECHNOLOGY LLC, priority 2009, published 2012)", "system": "Holstein cows", "test": "Milk fatty acid composition after abomasal or ruminal infusion of SDA-enhanced soybean oil in dairy cows (gas chromatography)", "assay_type": "in vivo", "details": "of the SDA present in the abomasally infused oil; range=36.8 to 41.9%", "description": "In this Example, transgenic soybean oil containing SDA was either infused directly in the rumen or directly into the abomasum bypassing the rumen to examine the potential of using SDA-enhanced soybean oil to increase the milk fat content of omega-3 fatty acids in dairy cows and to determine the efficiency of SDA uptake from the digestive tract and transfer to milk fat.\nThree multiparous, pregnant, rumen-fistulated Holstein cows averaging 267 days in lactation were assigned randomly to a 3×3 Latin square design. Treatments were: 1) control (no oil infusion); 2) abomasal infusion of SDA-enhanced SBO (SDA-abo) and 3) ruminal infusion of SDA-enhanced SBO (SDA-rum). Oil infusions (210 g/d) provided 57 g/d of stearidonic acid and infusion periods were 7 d with a 7 d washout between periods. […]\nCows were milked twice a day with two milk samples obtained at each milking. One milk sample was analyzed for major components (i.e., fat, protein, lactose) by infrared analysis. The second milk sample was analyzed for fatty acids with extraction, methylation and gas chromatographic analysis. Fatty acids were quantified using pure methyl ester standards and a butter oil reference standard was analyzed periodically to monitor column performance and correction factors for individual fatty acids. […]"}
{"compound": "CC/C=C\\C/C=C\\C/C=C\\C/C=C\\CCCCC(=O)O", "note": "[SDA, stearidonic acid]", "values": [{"measurement": "transfer efficiency of SDA to milk fat", "result": 39.3, "unit": "%"}]}
